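Briefly, cells in 96-well plates were exposed to five compound concentrations for 48 h, and endpoints were estimated by linear interpolation. GI50 = concentration required for 50% inhibition of growth. TGI: concentration producing complete growth inhibition.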
Assays:
Test in all cases: NCI tumour cell line growth inhibition, 48 h
ACHN renal = test system: ACHN renal
MDA-N = test system: MDA-N
786-0 renal = test system: 786-0 renal
HS 578T breast = test system: HS 578T breast
CCRF-CEM leukemia = test system: CCRF-CEM leukemia
SK-MEL-2 melanoma = test system: SK-MEL-2 melanoma
HOP-62 NSCLC = test system: HOP-62 NSCLC
UACC-62 melanoma = test system: UACC-62 melanoma
SF-295 CNS = test system: SF-295 CNS
SF-539 CNS = test system: SF-539 CNS
SR leukemia = test system: SR leukemia

Row | Structure (SMILES) | TGI (ACHN renal) | TGI (MDA-N) | TGI (786-0 renal) | TGI (HS 578T breast) | TGI (CCRF-CEM leukemia) | TGI (SK-MEL-2 melanoma) | TGI (HOP-62 NSCLC) | TGI (UACC-62 melanoma) | TGI (SF-295 CNS) | TGI (SF-539 CNS) | TGI (SR leukemia) | GI50 (ACHN renal) | GI50 (SR leukemia) | GI50 (CCRF-CEM leukemia) | GI50 (SK-MEL-2 melanoma) | GI50 (SF-295 CNS) | GI50 (HOP-62 NSCLC) | GI50 (UACC-62 melanoma) | GI50 (SF-539 CNS) | GI50 (HS 578T breast)
1 | O=[N+]([O-])c1ccc(CSC2=C(c3ccc(Cl)cc3)S/C(=C3\SC(SCc4ccc([N+](=O)[O-])cc4)=C(c4ccc(Cl)cc4)S3)S2)cc1 | > 100 µM | > 100 µM | > 100 µM | > 100 µM | > 100 µM | > 100 µM | > 100 µM | > 100 µM | > 100 µM | > 100 µM |  |  |  |  |  |  |  |  |  | 
2 | CCOC(=O)c1c(N2CCN(C)CC2)[nH]c(=O)c(C(c2c(Cl)cccc2Cl)c2c(O)c(C(=O)OCC)c(N3CCN(C)CC3)[nH]c2=O)c1O | 42.8 µM |  | 87 µM | 75 µM | > 100 µM | 53.2 µM | > 100 µM | 39.5 µM | 63.3 µM | 39.5 µM | 67.6 µM |  |  |  |  |  |  |  |  | 
3 | CCOC(=O)CN(CC)C(=O)NC12CC3CC(CC(C3)C1)C2 |  |  |  |  | 631 µM | 281 µM | 602 µM | 312 µM | > 615 µM | 659 µM |  |  |  |  |  |  |  |  |  | 
4 | CN(C)CCCn1c(-c2ccc(Br)cc2)csc1=Nc1ccccc1 | 37.7 µM | > 100 µM |  |  | > 100 µM | 31 µM | 26.4 µM | 29.6 µM | 25.4 µM | 34 µM | 46.8 µM |  |  |  |  |  |  |  |  | 
5 | C=CC[PH+](c1ccccc1)c1ccccc1.C=CC[PH+](c1ccccc1)c1ccccc1.[Pt+2].[S-]c1nc2ccccc2[nH]1.[S-]c1nc2ccccc2[nH]1 | > 100 µM |  |  |  | > 100 µM | 5.36 µM |  |  | 8.44 µM |  | > 100 µM | 3.89 µM | 2710 nM | 1.9 µM | 2.25 µM | 2820 nM |  |  |  | 
6 | Cc1cc2nc3c(N)nn(CCCN(C)C)c3nc2cc1C | > 100 µM |  | > 100 µM | > 100 µM |  |  | > 100 µM | > 100 µM | > 100 µM | > 100 µM |  |  |  |  |  |  |  |  |  | 
7 | COc1ccc(/C=C(\C#N)c2ccccn2)cc1OC | > 100 µM | > 100 µM | > 100 µM |  | > 100 µM | > 100 µM | > 100 µM | > 100 µM | 85.3 µM | > 100 µM | > 100 µM |  |  |  |  |  |  |  |  | 
8 | c1c2c(cc3c1OCO3)-c1ncc3cc4c(cc3c1C2)OCO4 | 6.33 µM |  | 44.2 µM | > 94.8 µM | > 100 µM | > 87.1 µM | 27.5 µM | 9.16 µM | > 34 µM | 5.25 µM |  | 0.0337 µM | < 10 nM | 17.6 µM | > 8.58 µM |  | 112 nM | < 0.0267 µM | 598 nM | 
9 | C(/C=C(\Nc1ccccc1)c1ccc2ccccc2c1)=Nc1ccccc1 | 11.5 µM |  | 8.9 µM | 13.7 µM | 2.85 µM | 30.9 µM | 7.05 µM | 3.37 µM | 4.28 µM | 4.1 µM | 2.49 µM |  |  |  |  |  |  |  |  | 
10 | Cc1c(CCCl)c(Cl)n2c(nc3ccccc32)c1C#N | 2.14 µM |  |  |  | 3.36 µM | 2.78 µM | 4.8 µM | 2.51 µM | 4.34 µM | 2.81 µM | 0.649 µM |  |  |  |  |  |  |  |  | 
11 | CN(CCNC(=O)c1nn(C)c2c1Cc1ccccc1-2)CCNC(=O)c1nn(C)c2c1Cc1ccccc1-2 | 28.4 µM | 29.4 µM | 27.7 µM |  |  | 28.6 µM | 34.2 µM | 28.7 µM | 30.8 µM | 27.6 µM |  |  |  |  |  |  |  |  |  | 
12 | C[N+]1(CC[N+]2(C)CCCC2c2cccnc2)CCCC1c1cccnc1 (configuration not stated) | > 100 µM | > 100 µM | 90.7 µM | > 100 µM |  | > 100 µM | > 100 µM | > 100 µM | > 100 µM | > 100 µM | > 100 µM |  |  |  |  |  |  |  |  | 
13 | O=C1C=C2SC3C[C@@]24CC1(O)[N+]1=c2c4c(c(O)c4c2=C(C=N4)CC1)N3 |  |  |  |  | 2.03 µM | 2.77 µM | 3.24 µM | 1.51 µM | 2.95 µM | 2.85 µM |  |  |  |  |  |  |  |  |  | 
14 | O=C(c1ccccc1)c1nn(-c2cccc(Cl)c2)c2nc3nc(-c4ccccc4)cc(=O)n3nc12 | > 25 µM |  |  | > 25 µM | > 25 µM | > 25 µM | > 25 µM | > 25 µM | > 25 µM | > 25 µM | > 25 µM | > 25 µM | > 25000 nM | > 25 µM | > 25 µM | > 25000 nM | > 25000 nM | > 25 µM | > 25000 nM | > 25 µM
15 | C#C[C@]1(O)CC[C@H]2[C@@H]3CCC4=C/C(=N/OC(=O)c5cccc6cc7ccccc7nc56)CC[C@@H]4[C@H]3CC[C@@]21CC | > 100 µM | > 100 µM | > 100 µM | > 100 µM | > 100 µM | > 100 µM | > 100 µM | > 100 µM |  | > 100 µM | > 100 µM |  |  |  |  |  |  |  |  | 
16 | CSC(SC)=C(C#N)C(=O)Nc1ccc(Cl)cc1 |  | > 100 µM | > 100 µM | > 100 µM | 74.9 µM | > 100 µM |  | > 100 µM |  | 67.7 µM | > 100 µM |  |  |  |  |  |  |  |  | 
17 | COC(=O)[C@@H]1CN(C(=O)Cc2ccccc2)C(=O)N1 | > 100 µM |  | > 100 µM | > 100 µM | > 100 µM |  | > 100 µM | > 100 µM | > 100 µM | > 100 µM | > 100 µM |  |  |  |  |  |  |  |  | 
18 | Cc1ccc(NC(c2ccccc2)P(=O)(c2ccccc2)c2ccccc2)cc1 (configuration not stated) | > 100 µM | > 100 µM | > 100 µM | > 100 µM |  | > 100 µM | > 100 µM | > 100 µM | > 100 µM | > 100 µM | > 100 µM |  |  |  |  |  |  |  |  | 
19 | O=S(c1ccc(O)cc1)c1ccc(O)cc1 |  |  | > 100 µM |  | > 100 µM | > 100 µM | > 100 µM | > 100 µM | > 100 µM | > 100 µM |  |  |  |  |  |  |  |  |  | 
20 | O=C(O)COc1c(Cl)cc(Cl)c(C(c2c(Cl)cc(Cl)c(OCC(=O)O)c2Cl)C(Cl)(Cl)Cl)c1Cl | > 100 µM | > 100 µM | > 100 µM | > 100 µM |  | 42.2 µM | 15.7 µM | 37.9 µM | 51.9 µM | > 100 µM |  |  |  |  |  |  |  |  |  | 
21 | CNC(=O)OC1/C(C)=C\C(C)C(O)C(OC)CC(C)CC2=C(OC)C(=O)C=C(C2=O)N(C)C(=O)/C(C)=C/C=C\C1OC (configuration not stated) | 20.9 µM | 10.7 µM | 18.2 µM | 15.3 µM | 4.08 µM | 21.9 µM | 24 µM | 17.6 µM | 46.5 µM | 23.3 µM |  |  |  |  |  |  |  |  | < 100 nM | 
